Test systems include HCC-2998 colon; HOP-62 NSCLC; HOP-92 NSCLC; KM12 colon; NCI-H460 lung; NCI/ADR-RES ovarian; OVCAR-5 ovarian; SK-OV-3 ovarian; SNB-19 CNS; U251 CNS.
What all share (test): NCI tumour cell line growth inhibition, 48 h

Structures are written as SMILES. “And” between values parts separate entries of the source, which are not always exact repeats. Equal entries are not always repeated.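 Values below derive from 48-hour exposures of cells grown in 96-well plates, with endpoints linearly interpolated between the two concentrations bracketing the appropriate inhibition level. Here, GI50 denotes the concentration required for 50% inhibition of growth. TGI marks complete inhibition of growth.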 Where a SMILES comes first, the peptide text is derived from it. The star is where a group is joined. Trt = c1ccc(C(c2ccccc2)(c2ccccc2)*)cc1; Cbz = O=C(OCc1ccccc1)* Bounds are passed on as bounds.

For `CO[C@H]1C[C@@H]2CC[C@@H](C)[C@@](O)(O2)C(=O)C(=O)N2CCCC[C@H]2C(=O)O[C@H]([C@H](C)C[C@@H]2CC[C@@H](OC(=O)C(C)(CO)CO)[C@H](OC)C2)CC(=O)[C@H](C)/C=C(\C)[C@@H](O)[C@@H](OC)C(=O)[C@H](C)C[C@H](C)\C=C/C=C/C=C/1C`, the TGI in the assay on HCC-2998 colon is above 10 µM; in the assay with HOP-62 NSCLC, above 10 µM; in the assay on HOP-92 NSCLC, above 8.98 µM; with KM12 colon, above 10 µM; in the assay with NCI-H460 lung it was above 10 µM; with NCI/ADR-RES ovarian, above 10 µM. In addition, the TGI in the assay on OVCAR-5 ovarian, in the assay on SK-OV-3 ovarian, in the assay with SNB-19 CNS and in the assay on U251 CNS was above 10 µM in each case. The GI50 in the assay with HOP-62 NSCLC is 14.7 nM; with HOP-92 NSCLC it was 1.41 nM; in the assay with KM12 colon it was above 10 µM; with NCI-H460 lung it was 1.31 nM; in the assay with NCI/ADR-RES ovarian it was above 4910 nM; in the assay on OVCAR-5 ovarian, above 6.89 µM. Also, the GI50 in the assay on SK-OV-3 ovarian was 0.00139 µM.

With `Oc1ccc(Cl)cc1C(c1cc(Cl)ccc1O)C(Cl)(Cl)Cl`, the GI50 was 1690 nM with HCC-2998 colon; 1700 nM with HOP-62 NSCLC; 2280 nM with HOP-92 NSCLC; 1.73 µM in the assay with KM12 colon; 2130 nM in the assay on NCI-H460 lung; 1990 nM in the assay on NCI/ADR-RES ovarian. For the same compound, the GI50 is 1.66 µM in the assay with OVCAR-5 ovarian, 2.94 µM in the assay on SK-OV-3 ovarian, 3.24 µM in the assay with SNB-19 CNS and 1710 nM in the assay on U251 CNS. For the same compound, the TGI in the assay with HCC-2998 colon came out at 3.28 µM; with HOP-62 NSCLC, 3.64 µM; in the assay with HOP-92 NSCLC, 5.44 µM; in the assay on KM12 colon, 3.34 µM; in the assay with NCI-H460 lung, 4.58 µM; with NCI/ADR-RES ovarian, 4.67 µM. The TGI is 3.68 µM with OVCAR-5 ovarian, 9.76 µM in the assay with SK-OV-3 ovarian, 10.8 µM in the assay with SNB-19 CNS and 3.45 µM in the assay with U251 CNS.

With `CCCCN(CCCC)C(=O)[C@H](CC)[C@@H]1CC[C@@H](C)[C@@H]([C@H](C)[C@@H](O)[C@@H](C)C(=O)[C@H](CC)C2O[C@]3(C=C[C@@H](O)[C@]4(CC[C@@](C)([C@H]5CC[C@](O)(CC)[C@H](C)O5)O4)O3)[C@H](C)C[C@@H]2C)O1` (stereo partly specified), the GI50 with HCC-2998 colon was 2010 nM; with HOP-62 NSCLC it was 3790 nM; with HOP-92 NSCLC it was 1200 nM; in the assay with KM12 colon, 1.83 µM; in the assay on NCI-H460 lung it was 1990 nM; in the assay on NCI/ADR-RES ovarian it was 2500 nM. Besides, the GI50 was 1.9 µM in the assay with OVCAR-5 ovarian, 3.38 µM with SK-OV-3 ovarian, 3.46 µM in the assay with SNB-19 CNS and 2780 nM with U251 CNS. The TGI came out at 5.04 µM in the assay on HCC-2998 colon; 27.4 µM in the assay with HOP-62 NSCLC; 4.05 µM in the assay on HOP-92 NSCLC; 3.91 µM in the assay with KM12 colon; 4.47 µM in the assay with NCI-H460 lung; 9.02 µM in the assay with NCI/ADR-RES ovarian. Further, the TGI in the assay on OVCAR-5 ovarian was 4.78 µM; in the assay on SK-OV-3 ovarian, above 100 µM; in the assay with SNB-19 CNS it was above 100 µM; with U251 CNS, 10.3 µM.

As to `Clc1nccc2c(-c3csc(-c4c[nH]c5ccc(Br)cc45)n3)c[nH]c12`, the GI50 in the assay on HCC-2998 colon is 2220 nM; in the assay with HOP-62 NSCLC it was 2110 nM; with HOP-92 NSCLC it was 2430 nM; in the assay on KM12 colon it was 2.15 µM; with NCI-H460 lung it was 2160 nM; with NCI/ADR-RES ovarian, 2710 nM. Further, the GI50 in the assay on OVCAR-5 ovarian was 3.14 µM; in the assay with SK-OV-3 ovarian, 2.78 µM; with SNB-19 CNS, 3.25 µM; in the assay on U251 CNS, 2050 nM. Also, the TGI is 4.4 µM with HCC-2998 colon; 7.24 µM in the assay on HOP-62 NSCLC; 6.81 µM in the assay with HOP-92 NSCLC; 5.7 µM with KM12 colon; 4.58 µM in the assay with NCI-H460 lung; 10.7 µM in the assay with NCI/ADR-RES ovarian. Further, the TGI with OVCAR-5 ovarian worked out at 9.88 µM; with SK-OV-3 ovarian it was 8.27 µM; in the assay on SNB-19 CNS, 11.6 µM; with U251 CNS it was 5.02 µM.

For the compound `C=C1C(=O)O[C@H]2[C@H]1CC/C(COC(=O)c1cc(OC)c(OC)c(OC)c1)=C\CC[C@@]1(C)O[C@@H]21`, the GI50 in the assay on HCC-2998 colon was 1920 nM; in the assay on HOP-62 NSCLC, 2400 nM; in the assay with HOP-92 NSCLC it was 523 nM; in the assay on KM12 colon it was 2.26 µM; with NCI-H460 lung, 2350 nM; in the assay on NCI/ADR-RES ovarian it was 2870 nM. The GI50 in the assay with OVCAR-5 ovarian was 1.76 µM; with SK-OV-3 ovarian it was 5.22 µM; with SNB-19 CNS, 2.55 µM; in the assay on U251 CNS, 1600 nM. Also, the TGI with HCC-2998 colon came to 3.88 µM; in the assay on HOP-62 NSCLC it was 11.5 µM; in the assay on HOP-92 NSCLC it was 2.1 µM; in the assay on KM12 colon, 5.82 µM; in the assay on NCI-H460 lung, 6.52 µM; in the assay with NCI/ADR-RES ovarian, 13.8 µM. In addition, the TGI was 5.08 µM in the assay with OVCAR-5 ovarian, 16.8 µM in the assay on SK-OV-3 ovarian, 10.6 µM in the assay with SNB-19 CNS and 3.47 µM with U251 CNS.

Regarding `CC(=O)OCC1OC(n2c(=S)n(-c3ccc([N+](=O)[O-])cc3)c(=O)c3ccccc32)C(OC(C)=O)C(OC(C)=O)C1OC(C)=O` (stereo unspecified), the GI50 in the assay on HCC-2998 colon is 26800 nM and 20800 nM; in the assay on HOP-92 NSCLC, 21900 nM; with KM12 colon, 25.5 µM and 17.4 µM; with OVCAR-5 ovarian, 32.2 µM and > 100 µM; with SNB-19 CNS, 24.4 µM. Also, the TGI was 61.4 µM and 46.6 µM in the assay with HCC-2998 colon; 53.7 µM and 54.7 µM in the assay with HOP-62 NSCLC; > 91.6 µM and 47.4 µM in the assay on HOP-92 NSCLC; > 75.4 µM and 46.9 µM in the assay on KM12 colon; > 69.8 µM and 68.2 µM in the assay on NCI-H460 lung; 95.2 µM in the assay on NCI/ADR-RES ovarian. In addition, the TGI is above 100 µM with OVCAR-5 ovarian; 60.1 µM and 50.1 µM with SK-OV-3 ovarian; 47.5 µM and 69.4 µM with SNB-19 CNS; 42 µM and 37.8 µM in the assay on U251 CNS.

As for `CC(=O)Nc1ccc(C(=O)CCl)cc1`, the GI50 is 7480 nM in the assay with HCC-2998 colon; 15000 nM in the assay with HOP-62 NSCLC; 2120 nM with HOP-92 NSCLC; 12.2 µM in the assay on KM12 colon; 10800 nM in the assay on NCI-H460 lung; 14700 nM in the assay with NCI/ADR-RES ovarian. Further, the GI50 in the assay with OVCAR-5 ovarian is 12.2 µM; in the assay with SK-OV-3 ovarian, 15.1 µM; in the assay on SNB-19 CNS it was 17.2 µM; in the assay on U251 CNS, 12400 nM. Also, the TGI in the assay with HCC-2998 colon was 20.7 µM; in the assay with HOP-62 NSCLC, 32.1 µM; in the assay on HOP-92 NSCLC, 4.95 µM; with KM12 colon it was 25.7 µM; in the assay with NCI-H460 lung, 26 µM; in the assay with NCI/ADR-RES ovarian it was 43.5 µM. The TGI was 26.1 µM in the assay with OVCAR-5 ovarian, 28.3 µM in the assay with SK-OV-3 ovarian, 45.1 µM in the assay on SNB-19 CNS and 25.1 µM in the assay on U251 CNS.

For `CCOC(=O)[C@@H](C)C[C@H](Cc1ccccc1)NC(=O)c1csc([C@@H](C[C@H](C(C)C)N(C)C(=O)[C@@H](NC(=O)[C@H]2CCCCN2C)C(C)(C)CC)OC(C)=O)n1`, the GI50 with HCC-2998 colon was below 1.67 nM; with HOP-62 NSCLC it was 1.78 nM; with HOP-92 NSCLC, 1.9 nM; in the assay on KM12 colon it was below 0.00167 µM; with NCI-H460 lung, below 1.67 nM; in the assay on NCI/ADR-RES ovarian it was 8.91 nM. In addition, the GI50 with OVCAR-5 ovarian was 0.0037 µM; in the assay with SK-OV-3 ovarian, below 0.00167 µM; with SNB-19 CNS, below 0.00167 µM; with U251 CNS, below 1.67 nM. The TGI in the assay with HCC-2998 colon was 2.77 µM; with HOP-62 NSCLC it was above 16.7 µM; in the assay with HOP-92 NSCLC, 5.69 µM; with KM12 colon, above 16.7 µM; in the assay with NCI-H460 lung, above 12.9 µM; in the assay with OVCAR-5 ovarian, above 16.7 µM. In addition, the TGI in the assay with SK-OV-3 ovarian was above 16.7 µM; in the assay on SNB-19 CNS, above 16.7 µM; with U251 CNS, above 7.64 µM.

On to `NS(=O)(=O)c1ccc(Nc2cc(-c3ccc(O)c(F)c3)[nH]n2)cc1`, for which the GI50 with HCC-2998 colon is above 25000 nM; with HOP-62 NSCLC, above 25000 nM; in the assay on HOP-92 NSCLC, above 18300 nM; in the assay on KM12 colon, 10.3 µM; in the assay with NCI-H460 lung it was above 25000 nM; with NCI/ADR-RES ovarian, above 25000 nM. Besides, the GI50 with OVCAR-5 ovarian is above 25 µM; in the assay on SK-OV-3 ovarian, above 25 µM; in the assay on SNB-19 CNS it was above 25 µM; in the assay on U251 CNS it was 16400 nM. For the same compound, the TGI in the assay on HCC-2998 colon, in the assay with HOP-62 NSCLC, in the assay with HOP-92 NSCLC, in the assay on KM12 colon, in the assay on NCI-H460 lung and in the assay with NCI/ADR-RES ovarian was above 25 µM throughout. Further, the TGI in the assay with OVCAR-5 ovarian, in the assay with SK-OV-3 ovarian, with SNB-19 CNS and in the assay on U251 CNS was above 25 µM in each case.

With `COC(=O)C(CO)NC(=O)C(CSC(c1ccccc1)(c1ccccc1)c1ccccc1)NC(=O)OCc1ccccc1` (stereo unspecified) (Cbz-Cys(Trt)-Ser-OMe; configuration not given here), the TGI with HCC-2998 colon is 29 µM; with HOP-62 NSCLC it was 46.5 µM; with HOP-92 NSCLC it was 29.8 µM; in the assay on KM12 colon, 31.3 µM; in the assay on NCI-H460 lung, 33.6 µM; in the assay on NCI/ADR-RES ovarian it was 49.5 µM. Moreover, the TGI with OVCAR-5 ovarian was 35.3 µM; in the assay with SK-OV-3 ovarian it was above 90.1 µM; in the assay with SNB-19 CNS, 50.7 µM; in the assay with U251 CNS it was 33.3 µM.
